{
  "source": "patent US11833160B2",
  "about": "“Ursodeoxycholic acid derivatives as HDAC inhibitors for the treatment of polycystic diseases” (UNIVERSIDAD DEL PAIS VASCO/EUSKAL HERRIKO UNIBERTSITATEA, priority 2017, dated 2023)",
  "key": {"human HDAC4": {"molecular_target": "T1, human HDAC4 (Homo sapiens, UniProt P56524)", "T1 construct": "amino acids 627-1085 with GST N-terminal tag, MW=75.2 kDa; GST (N); purchased BioMol, Hamburg, Germany; host or cells: baculovirus expression system", "T1 sequence (P56524 627-1084 limits assumed)": "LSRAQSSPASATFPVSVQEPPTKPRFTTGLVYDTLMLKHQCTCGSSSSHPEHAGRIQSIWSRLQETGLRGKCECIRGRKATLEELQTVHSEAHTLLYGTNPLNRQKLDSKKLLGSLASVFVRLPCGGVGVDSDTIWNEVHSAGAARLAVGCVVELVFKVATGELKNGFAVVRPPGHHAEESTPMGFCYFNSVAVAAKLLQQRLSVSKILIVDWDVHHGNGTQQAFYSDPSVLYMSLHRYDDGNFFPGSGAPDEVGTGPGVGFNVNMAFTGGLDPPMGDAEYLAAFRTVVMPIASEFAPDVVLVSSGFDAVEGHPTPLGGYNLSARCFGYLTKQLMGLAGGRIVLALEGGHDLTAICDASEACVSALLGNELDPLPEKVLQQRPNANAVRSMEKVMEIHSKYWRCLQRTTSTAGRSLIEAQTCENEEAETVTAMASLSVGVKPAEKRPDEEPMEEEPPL", "assay": "HDAC4 enzymatic activity assay (fluorogenic peptide)", "assay_type": "biochemical", "details": "10-dose, 3-fold serial dilution, triplicate", "method": "(§1) Peptide substrates: all HDAC assays were performed using acetylated peptide substrates labeled with 7-amino-4-methylcoumarin (AMC): • Substrate for isoforms HDAC1, 2, 3, 6, 10, 11, and HeLa nuclear extract assays: acetylated fluorogenic peptide from p53 residues 379-382 (RHKKAc). • Substrate for isoforms HDAC4, 5, 7, 9: fluorogenic Boc-L-Lys (s-trifluoroacetyl)-AMC. • Substrate for HDAC8 assays: acetylated fluorogenic peptide from p53 residues 379-382 (RHKAcKAc).\n(§2) 50 μl of peptide substrate (see “peptide substrates” section above) and an optimal concentration of the corresponding enzyme (see “enzymes” section above) in the assay buffer at a final DMSO concentration of 1% were incubated in the presence of gradient concentrations of inhibitors (10-dose IC50 mode with 3-fold serial dilution) at 30° C. for 2 hours. The reactions were carried out in a 96-well microplate for fluorometry in a 50 μl reaction volume. After the deacetylation reaction, Fluor-de-Lys-Developer (BioMol Cat. #KI-105) was added to each well to digest the deacetylated substrate, thereby producing the fluorescent signal. The reaction was carried out for 45 minutes at 30° C. with 5% CO2; the fluorescent signal was then measured using an excitation wavelength of 360 nm and an emission wavelength of 460 nm in a microplate-reading fluorometer (GeminiXS, Molecular Devices, Sunnyvale, CA). […]"}, "OATP1B1": {"molecular_target": "T2, OATP1B1 (Homo sapiens, UniProt Q9Y6L6)", "T2 construct": "expressed in transfected cells", "T2 sequence (Q9Y6L6 1-691)": "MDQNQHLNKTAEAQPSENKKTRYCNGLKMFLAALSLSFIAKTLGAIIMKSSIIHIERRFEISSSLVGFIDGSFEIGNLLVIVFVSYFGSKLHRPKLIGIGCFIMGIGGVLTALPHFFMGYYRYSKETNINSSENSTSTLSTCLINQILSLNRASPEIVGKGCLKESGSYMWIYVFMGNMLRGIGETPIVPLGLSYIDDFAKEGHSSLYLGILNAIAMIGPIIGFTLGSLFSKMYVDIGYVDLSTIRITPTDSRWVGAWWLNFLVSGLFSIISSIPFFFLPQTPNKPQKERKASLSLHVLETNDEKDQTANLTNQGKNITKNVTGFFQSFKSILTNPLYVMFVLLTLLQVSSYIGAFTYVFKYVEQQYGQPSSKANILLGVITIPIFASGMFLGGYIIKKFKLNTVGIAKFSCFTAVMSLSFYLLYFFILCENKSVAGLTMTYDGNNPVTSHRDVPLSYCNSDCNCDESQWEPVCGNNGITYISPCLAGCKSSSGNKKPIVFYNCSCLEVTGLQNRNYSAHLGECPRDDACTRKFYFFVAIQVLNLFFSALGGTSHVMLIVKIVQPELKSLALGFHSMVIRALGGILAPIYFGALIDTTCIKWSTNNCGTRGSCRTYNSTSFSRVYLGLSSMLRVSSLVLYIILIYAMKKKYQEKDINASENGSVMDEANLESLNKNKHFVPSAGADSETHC", "assay": "Uptake study, transporter OATP1B1 (data not shown)", "assay_type": "in vitro ADME"}, "ASBT": {"molecular_target": "T3, ASBT (Homo sapiens, UniProt Q12908)", "T3 construct": "expressed in transfected cells", "T3 sequence (Q12908 1-348)": "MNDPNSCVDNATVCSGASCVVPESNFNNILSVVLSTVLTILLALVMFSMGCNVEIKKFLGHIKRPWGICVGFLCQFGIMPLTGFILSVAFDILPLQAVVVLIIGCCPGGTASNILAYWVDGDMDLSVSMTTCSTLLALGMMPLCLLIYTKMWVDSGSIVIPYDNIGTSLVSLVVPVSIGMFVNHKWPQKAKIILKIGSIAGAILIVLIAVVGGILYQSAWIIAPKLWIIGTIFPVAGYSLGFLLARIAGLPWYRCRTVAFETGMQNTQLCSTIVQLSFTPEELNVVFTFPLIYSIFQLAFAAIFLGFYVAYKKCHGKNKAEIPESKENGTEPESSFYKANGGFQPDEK", "assay": "Uptake study, transporter ASBT (data not shown)", "assay_type": "in vitro ADME", "description": "The bile acid and organic cation transporters expressed in hepatocytes and cholangiocytes were overexpressed in HepG2 cells (OCT1) and CHO cells (OCT3). The efficacy of the process was confirmed by means of measuring the abundance of mRNA (qPCR), protein (WB), and the correct insertion in the plasma membrane (immunofluorescence). The uptake studies included comparing the uptake efficiency of the compound with respect to dihydroethidium (DHE) in the case of OCT3, and sorafenib in the case of OCT1 (positive controls), as well as the sensitivity of the process to substrate inhibition induced by the joint administration of the compound and quinine. The cell content of all the compounds was determined by means of triple quadrupole HPLC-MS/MS after extraction thereof from the cell system used in each case."}, "human HDAC5": {"molecular_target": "T4, human HDAC5 (Homo sapiens, UniProt Q9UQL6)", "T4 construct": "GST (N); purchased BioMol, Hamburg, Germany; host or cells: baculovirus / Sf9 cells", "T4 sequence (Q9UQL6 1-1123 isoform Q9UQL6-3)": "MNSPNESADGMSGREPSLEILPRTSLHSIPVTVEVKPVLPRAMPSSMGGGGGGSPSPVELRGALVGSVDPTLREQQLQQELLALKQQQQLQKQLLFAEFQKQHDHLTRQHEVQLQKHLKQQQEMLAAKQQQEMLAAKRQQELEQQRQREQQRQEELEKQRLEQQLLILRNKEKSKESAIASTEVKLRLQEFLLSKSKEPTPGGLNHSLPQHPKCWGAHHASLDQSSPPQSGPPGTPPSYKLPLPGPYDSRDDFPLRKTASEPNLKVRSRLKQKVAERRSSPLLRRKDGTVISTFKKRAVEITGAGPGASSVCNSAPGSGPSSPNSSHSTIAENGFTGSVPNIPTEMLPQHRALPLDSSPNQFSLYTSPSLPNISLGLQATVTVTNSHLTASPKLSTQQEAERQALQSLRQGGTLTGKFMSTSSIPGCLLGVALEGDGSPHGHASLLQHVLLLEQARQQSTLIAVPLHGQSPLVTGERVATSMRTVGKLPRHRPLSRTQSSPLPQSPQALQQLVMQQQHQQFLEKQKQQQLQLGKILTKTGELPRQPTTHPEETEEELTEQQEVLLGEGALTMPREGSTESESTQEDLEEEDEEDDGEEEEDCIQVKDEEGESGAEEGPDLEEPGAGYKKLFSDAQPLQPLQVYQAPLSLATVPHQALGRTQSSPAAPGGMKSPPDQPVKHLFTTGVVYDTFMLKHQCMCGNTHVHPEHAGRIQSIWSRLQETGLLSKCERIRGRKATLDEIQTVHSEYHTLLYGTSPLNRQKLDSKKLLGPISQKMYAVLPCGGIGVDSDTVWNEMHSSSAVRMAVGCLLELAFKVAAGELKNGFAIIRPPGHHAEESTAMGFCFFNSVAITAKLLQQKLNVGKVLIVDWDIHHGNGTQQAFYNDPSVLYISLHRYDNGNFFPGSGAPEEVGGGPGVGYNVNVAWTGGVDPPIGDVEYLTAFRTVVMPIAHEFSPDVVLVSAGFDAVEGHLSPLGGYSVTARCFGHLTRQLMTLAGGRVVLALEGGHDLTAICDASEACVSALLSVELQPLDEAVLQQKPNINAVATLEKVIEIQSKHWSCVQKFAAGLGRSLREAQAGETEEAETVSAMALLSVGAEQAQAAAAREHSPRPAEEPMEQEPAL", "assay": "HDAC5 enzymatic activity assay (fluorogenic peptide)", "assay_type": "biochemical", "details": "10-dose, 3-fold serial dilution, triplicate", "method": "as §1, §2"}, "[1]": {"tested_on": "α-acetylated-tubulin in polycystic human cholangiocytes", "assay": "Immunoblot of α-acetylated-tubulin", "assay_type": "cell-based", "details": "different doses", "method": "The expression of α-acetylated-tubulin (Ac-α-tubulin) and lysine 9-acetylated histone 3 (Ac-H3K9) in polycystic human cholangiocytes in culture was analyzed using Ac-α-tubulin-specific primary antibodies (1:2000, Sigma-Aldrich) and H3K9-specific primary antibodies (1:500, Cell Signaling Technology) and a peroxidase-conjugated secondary antibody (1:5000, Sigma-Aldrich). The expression of each protein was quantified using a chemiluminescence system (Amersham, GE Healthcare). The GAPDH protein was used as loading control."}},
  "data": [
    {"smiles": "C[C@H](CCC(=O)NCc1ccc(C(=O)NO)cc1)[C@H]1CC[C@H]2[C@@H]3[C@@H](O)C[C@@H]4C[C@H](O)CC[C@]4(C)[C@H]3CC[C@]12C", "note": "[Compound Ia]", "values": [
      {"measurement": "IC50", "setting": "human HDAC4", "value": 16.5, "unit": "µM"},
      {"measurement": "transport through OATP1B1", "setting": "OATP1B1", "value": "not through ASBT or OATP1B1"},
      {"measurement": "transport through ASBT", "setting": "ASBT", "value": "not through ASBT"},
      {"measurement": "IC50", "setting": "human HDAC5", "value": 14.1, "unit": "µM"},
      {"measurement": "expression of α-acetylated-tubulin", "setting": "[1]", "value": "increases significantly and in a dose-dependent manner"}
    ]},
    {"smiles": "C[C@H](CCC(=O)NCC(=O)NCc1ccc(C(=O)NO)cc1)[C@H]1CC[C@H]2[C@@H]3[C@@H](O)C[C@@H]4C[C@H](O)CC[C@]4(C)[C@H]3CC[C@]12C", "note": "[Ib, 4-((2-((R)-4 ((3R,5S,7S,8R,9S,10S,13R,14S,17R)-3,7-dihydroxy-10,13-dimethylhexadecahydro-1H-cyclopenta[a]phenanthren-17-yl)pentanamide)acetamido)methyl)-N-hydroxybenzamide]", "values": [
      {"measurement": "melting point", "value": "153 to 155", "unit": "°C"}
    ]}
  ]
}
